# Assay results as given in patent US7612084B2, “Amine derivatives for the treatment of asthma and COPD” (Pfizer Inc, priority 2006, dated 2009).
# Columns and labels:
# [1] = molecular target: human muscarinic M3 receptor (Homo sapiens, UniProt P20309); assay: Whole cell β-lactamase reporter assay in CHO cells expressing the hM3 receptor (antagonist activity); type: cell-based; conditions: 80 nM carbamyl choline, IC50 converted to Ki by Cheng-Prusoff
# Description: Functional Assessment of Antagonist Activity Using a Whole Cell β-Lactamase Reporter Assay in CHO Cells Expressing the hM3 Receptor.
# CHO (Chinese Hamster Ovary) cells recombinantly expressing the human muscarinic M3 receptor were transfected with the NFAT_β-Lac_Zeo plasmid. Cells were grown in DMEM with Glutamax-1, supplemented with 25 mM HEPES(Life Technologies 32430-027), containing 10% FCS (Foetal Calf Serum; Sigma F-7524), […] Sodium pyruvate (Sigma S-8636), NEAA (non-Essential Amino Acids; Invitrogen 11140-035) and […] Zeocin (Invitrogen R250-01).
# Cells were harvested for assay when they reached 80-90% confluency using enzyme free cell Dissociation Solution (Life technologies 13151-014) incubated with the cells for 5 min at 37° C. in an atmosphere containing 5% CO2. Detached cells were collected in warmed growth media and centrifuged at 200 rpm for 10 min, washed in PBS (Phosphate Buffered Saline; Life Technologies 14190-094) and centrifuged again as just described. The cells were re-suspended at 2×10^5 cells/ml in growth medium (composition as described above). 20 μl of this cell suspension was added to each well of a 384 well black clear bottomed plate (Greiner Bio One 781091-PFI). The assay buffer used was PBS supplemented with 0.05% Pluronic F-127 (Sigma 9003-11-6) and 2.5% DMSO. Muscarinic M3 receptor signalling was stimulated using 80 nM carbamyl choline (Aldrich N240-9) incubated with the cells for 4 h at 37° C./5% CO2 and monitored at the end of the incubation period using a Tecan SpectraFluor+plate reader (λ−excitation 405 nm, emission 450 nm and 503 nm). Compounds under test were added to the assay at the beginning of the 4 h incubation period and compound activity measured as the concentration dependent inhibition of the carbamyl choline induced signal. Inhibition curves were plotted and IC50 values generated using a 4-parameter sigmoid fit and converted to Ki values using the Cheng-Prusoff correction and the KD value for carbamyl choline in the assay.
# [2] = molecular target: human adrenergic B2 receptor (Homo sapiens, UniProt P07550); assay: Whole cell luciferase reporter assay in CHO cells expressing the hB2 receptor (agonist potency); type: cell-based; conditions: 4 h incubation, read-out: EC50 - beta2
# Chain of human adrenergic B2 receptor (P07550 whole entry): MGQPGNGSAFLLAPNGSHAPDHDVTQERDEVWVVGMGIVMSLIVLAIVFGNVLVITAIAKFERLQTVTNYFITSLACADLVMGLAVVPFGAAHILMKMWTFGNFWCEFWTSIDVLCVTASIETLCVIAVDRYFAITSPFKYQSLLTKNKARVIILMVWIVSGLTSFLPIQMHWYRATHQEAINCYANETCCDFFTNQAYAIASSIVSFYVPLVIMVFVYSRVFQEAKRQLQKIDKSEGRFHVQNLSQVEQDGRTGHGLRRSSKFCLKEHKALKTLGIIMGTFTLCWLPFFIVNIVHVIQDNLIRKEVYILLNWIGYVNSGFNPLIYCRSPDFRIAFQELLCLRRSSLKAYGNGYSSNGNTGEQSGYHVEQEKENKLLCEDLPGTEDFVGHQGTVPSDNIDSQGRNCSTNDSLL
# Description: Functional Assessment of Agonist Potency and Efficacy Using a Whole Cell Luciferase Reporter Assay in CHO Cells Expressing the hB2 Receptor.
# CHO (Chinese Hamster Ovary) cells recombinantly expressing the human adrenergic B2 receptor and transfected with a luciferase enzyme reporter gene were maintained in growth media composed of F12:DMEM (Sigma D6421) containing 10% Foetal Bovine Serum (FBS: Sigma F03921) 10 μg/ml puromycin (Sigma N277698), 0.5 mg/ml Geneticin G418 (Sigma G7034) and 2 mM L-glutamine (Sigma G7513). The cells were kept in sterile conditions at 37° C., in an atmosphere containing 5% CO2.
# hB2 Luciferase Assay Protocol
# Cells were harvested for assay when they reached 80-90% confluency using enzyme free cell Dissociation Solution (Life technologies 13151-014) incubated with the cells for 5 min at 37° C. in an atmosphere containing 5% CO2. Detached cells were collected in warmed growth media (composition described above), and re-suspended in assay media (F12:DMEM (Sigma D6421) containing 1% Foetal Bovine Serum (FBS: Sigma F03921), 10 μg/ml puromycin (Sigma N277698), 0.5 mg/ml Geneticin G418 (Sigma G7034) and 2 mM L-glutamine (Sigma G7513))to give a viable cell concentration of 1×10^6 cells/ml. 10 ul of this suspension was added to each well of a tissue culture treated low volume 384 well plate (Greiner788073) and the plate incubated in an atmosphere containing 5% CO2 at 37° C. for 2 h. Concentration ranges of test compounds were prepared in phosphate Buffered Saline containing 0.05% pluronic-F127 (Sigma P2443) and 2.5% DMSO. 2 μl of each test concentration were added to the appropriate 384 plate well and returned to the incubator for a further 4 h. At the end of the incubation period 4 μl of Steady-Glo reagent (Steady-Glo Luciferase assay system (Promega E2520) was added to each well and the plate read immediately in a Leadseeker Plate reader (Amersham Bioscience) using a 660 nm filter. Concentration effect curves were plotted and EC50 values generated using a 4-parameter sigmoid fit using an in-house data analysis programme. Isoprenaline was run in every assay as a reference standard.
# Chain of human muscarinic M3 receptor (P20309 whole entry): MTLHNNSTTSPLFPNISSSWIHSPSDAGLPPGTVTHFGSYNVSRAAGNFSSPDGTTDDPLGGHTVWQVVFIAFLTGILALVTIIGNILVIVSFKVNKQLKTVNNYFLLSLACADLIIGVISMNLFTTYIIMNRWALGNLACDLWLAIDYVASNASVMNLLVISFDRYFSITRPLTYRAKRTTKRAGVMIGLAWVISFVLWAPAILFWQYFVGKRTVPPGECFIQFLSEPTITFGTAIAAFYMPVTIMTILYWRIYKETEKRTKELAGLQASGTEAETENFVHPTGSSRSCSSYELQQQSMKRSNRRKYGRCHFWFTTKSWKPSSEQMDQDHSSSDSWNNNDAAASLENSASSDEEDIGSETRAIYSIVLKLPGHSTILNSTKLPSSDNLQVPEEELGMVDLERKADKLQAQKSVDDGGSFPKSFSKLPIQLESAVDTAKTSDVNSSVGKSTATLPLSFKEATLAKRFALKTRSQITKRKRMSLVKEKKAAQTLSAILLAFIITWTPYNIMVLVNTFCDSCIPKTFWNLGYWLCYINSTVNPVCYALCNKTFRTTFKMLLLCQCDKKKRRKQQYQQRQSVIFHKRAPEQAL
Compound,Ki [1] [nM],EC50 [2] [nM]
"CC(C)N(CC[C@H](c1ccccc1)c1cc(CCCCCCCCCCNC[C@H](O)c2ccc(O)c(NS(C)(=O)=O)c2)ccc1O)C(C)C [Example 1, N-(5-{(1R)-2-[(10-{3-[(1R)-3-(diisopropylamino)-1-phenylpropyl]-4-hydroxyphenyl}decyl)amino]-1-hydroxyethyl}-2-hydroxyphenyl)methanesulfonamide]",3.4,0.88
"CC(C)N(CC[C@H](c1ccccc1)c1cc(CCCOc2ccc(CCNC[C@H](O)c3ccc(O)c(NS(C)(=O)=O)c3)cc2)ccc1O)C(C)C [Example 2, N-{5-[(1R)-2-({2-[4-(3-{3-[(1R)-3-(diisopropylamino)-1-phenylpropyl]-4-hydroxyphenyl}propoxy)phenyl]ethyl}amino)-1-hydroxyethyl]-2-hydroxyphenyl}methanesulfonamide]",1.1,0.32
"CC(C)N(CC[C@H](c1ccccc1)c1cc(CCCCOc2ccc(CCNC[C@H](O)c3ccc(O)c(NS(C)(=O)=O)c3)cc2)ccc1O)C(C)C [Example 3, N-{5-[(1R)-2-({2-[4-(4-{3-[(1R)-3-(Diisopropylamino)-1-phenylpropyl]-4-hydroxyphenyl}butoxy)phenyl]ethyl}amino)-1-hydroxyethyl]-2-hydroxyphenyl}methanesulfonamide]",1.4,0.14
"CC(C)N(CC[C@H](c1ccccc1)c1cc(OCCCCCCCNC[C@H](O)c2ccc(O)c(NS(C)(=O)=O)c2)ccc1O)C(C)C [Example 4, N-(5-{(1R)-2-[(7-{3-[(1R)-3-(diisopropylamino)-1-phenylpropyl]-4-hydroxyphenoxy}heptyl)amino]-1-hydroxyethyl}-2-hydroxyphenyl)methanesulfonamide]",0.28,1.3
"CC(C)N(CC[C@H](c1ccccc1)c1cc(CCCCOCCCCCCNC[C@H](O)c2ccc(O)c(NS(C)(=O)=O)c2)ccc1O)C(C)C [Example 6, N-{5-[(1R)-2-{[6-(4-{3-[(1R)-3-(Diisopropylamino)-1-phenylpropyl]-4-hydroxyphenyl}butoxy)hexyl]amino}-1-hydroxyethyl]-2-hydroxyphenyl}methanesulfonamide]",2.4,0.19
"CC(C)N(CC[C@H](c1ccccc1)c1cc(CCCCOc2ccc(CCNC[C@H](O)c3ccc(O)c(NC=O)c3)cc2)ccc1O)C(C)C [Example 7, N-{5-[(1R)-2-({2-[4-(4-{3-[(1R)-3-(diisopropylamino)-1-phenylpropyl]-4-hydroxyphenyl}butoxy)phenyl]ethyl}amino)-1-hydroxyethyl]-2-hydroxyphenyl}formamide]",2.1,0.049
"CC(C)N(CC[C@H](c1ccccc1)c1cc(CCCCOc2ccc(CCNC[C@H](O)c3ccc(O)c4[nH]c(=O)ccc34)cc2)ccc1O)C(C)C [Example 8, 5-[(1R)-2-({2-[4-(4-{3-[(1R)-3-(diisopropylamino)-1-phenylpropyl]-4-hydroxyphenyl}butoxy)phenyl]ethyl}amino)-1-hydroxyethyl]-8-hydroxyquinolin-2(1H)-one]",–,0.035
CC(C)N(CC[C@H](c1ccccc1)c1cc(CCCCOc2ccc(CCNC[C@H](O)c3cc(O)cc(O)c3)cc2)ccc1O)C(C)C [Example 9],1.1,4.8
"CC(C)N(CC[C@H](c1ccccc1)c1cc(CCOc2cccc(CCNC[C@H](O)c3ccc(O)c(NS(C)(=O)=O)c3)c2)ccc1O)C(C)C [Example 10, N-{5-[(1R)-2-({2-[3-(2-{3-[(1R)-3-(diisopropylamino)-1-phenylpropyl]-4-hydroxyphenyl}ethoxy)phenyl]ethyl}amino)-1-hydroxyethyl]-2-hydroxyphenyl}methanesulfonamide]",1.1,0.26
"CC(C)N(CC[C@H](c1ccccc1)c1cc(CCOc2cccc(CCNC[C@H](O)c3ccc(O)c(CO)c3)c2)ccc1O)C(C)C [Example 11, 2-[(1R)-3-(diisopropylamino)-1-phenylpropyl]-4-(2-{3-[2-({(2R)-2-hydroxy-2-[4-hydroxy-3-(hydroxymethyl)phenyl]ethyl}amino)ethyl]phenoxy}ethyl)phenol]",1.5,2.2
"CC(C)N(CC[C@H](c1ccccc1)c1cc(CCOc2ccc(CCNC[C@H](O)c3cc(O)cc(O)c3)cc2)ccc1O)C(C)C [Example 12, 5-[(1R)-2-({2-[4-(2-{3-[(1R)-3-(diisopropylamino)-1-phenylpropyl]-4-hydroxyphenyl}ethoxy)phenyl]ethyl}amino)-1-hydroxyethyl]benzene-1,3-diol]",0.26,13.8
"CC(C)N(CC[C@H](c1ccccc1)c1cc(CCOc2ccc(CCNC[C@H](O)c3ccc(O)c(NC=O)c3)cc2)ccc1O)C(C)C [Example 13, N-{5-[(1R)-2-({2-[4-(2-{3-[(1R)-3-(diisopropylamino)-1-phenylpropyl]-4-hydroxyphenyl}ethoxy)phenyl]ethyl}amino)-1-hydroxyethyl]-2-hydroxyphenyl}formamide]",0.38,0.078
"CC(C)N(CC[C@H](c1ccccc1)c1cc(CCOc2ccc(CCNC[C@H](O)c3ccc(O)c4[nH]c(=O)ccc34)cc2)ccc1O)C(C)C [Example 14, 5-[(1R)-2-({2-[4-(2-{3-[(1R)-3-(diisopropylamino)-1-phenylpropyl]-4-hydroxyphenyl}ethoxy)phenyl]ethyl}amino)-1-hydroxyethyl]-8-hydroxyquinolin-2(1H)-one]",0.76,0.054
"CC(C)N(CC[C@H](c1ccccc1)c1cc(CCOc2ccc(CCNC[C@H](O)c3ccc(O)c(CO)c3)cc2)ccc1O)C(C)C [Example 15, 2-[(1R)-3-(diisopropylamino)-1-phenylpropyl]-4-(2-{4-[2-({(2R)-2-hydroxy-2-[4-hydroxy-3-(hydroxymethyl)phenyl]ethyl}amino)ethyl]phenoxy}ethyl)phenol]",0.06,0.25
"CC(C)N(CC[C@H](c1ccccc1)c1cc(CCCCCCCCNC[C@H](O)c2ccc(O)c(NS(C)(=O)=O)c2)ccc1O)C(C)C [Example 16, N-(5-{(1R)-2-[(8-{3-[(1R)-3-(diisopropylamino)-1-phenylpropyl]-4-hydroxyphenyl}octyl)amino]-1-hydroxyethyl}-2-hydroxyphenyl)methanesulfonamide]",2,1.3
"CC(C)N(CC[C@H](c1ccccc1)c1cc(CCCCCOc2ccc(CCNC[C@H](O)c3ccc(O)c(NS(C)(=O)=O)c3)cc2)ccc1O)C(C)C [Example 17, N-(5-{(1R)-2-[(2-{4-[(5-{3-[(1R)-3-(diisopropylamino)-1-phenylpropyl]-4-hydroxyphenyl}pentyl)oxy]phenyl}ethyl)amino]-1-hydroxyethyl}-2-hydroxyphenyl)methanesulfonamide]",3,0.57
"CC(C)N(CC[C@H](c1ccccc1)c1cc(CCCCOc2ccc(CCNC[C@H](O)c3ccc(O)c(CO)c3)cc2)ccc1O)C(C)C [Example 18, 2-[(1R)-3-(diisopropylamino)-1-phenylpropyl]-4-(4-{4-[2-({(2R)-2-hydroxy-2-[4-hydroxy-3-(hydroxymethyl)phenyl]ethyl}amino)ethyl]phenoxy}butyl)phenol]",–,0.22
